Experimental data reported in ChEMBL document CHEMBL1795203, “Synthesis and evaluation of highly potent GABA(A) receptor antagonists based on gabazine (SR-95531)” (Bioorg Med Chem Lett, 2011).

Target: T1, GABA-A receptor; alpha-1/beta-2/gamma-2 (Homo sapiens, UniProt P14867+P18507+P47870)
T1 sequence (P14867 whole entry): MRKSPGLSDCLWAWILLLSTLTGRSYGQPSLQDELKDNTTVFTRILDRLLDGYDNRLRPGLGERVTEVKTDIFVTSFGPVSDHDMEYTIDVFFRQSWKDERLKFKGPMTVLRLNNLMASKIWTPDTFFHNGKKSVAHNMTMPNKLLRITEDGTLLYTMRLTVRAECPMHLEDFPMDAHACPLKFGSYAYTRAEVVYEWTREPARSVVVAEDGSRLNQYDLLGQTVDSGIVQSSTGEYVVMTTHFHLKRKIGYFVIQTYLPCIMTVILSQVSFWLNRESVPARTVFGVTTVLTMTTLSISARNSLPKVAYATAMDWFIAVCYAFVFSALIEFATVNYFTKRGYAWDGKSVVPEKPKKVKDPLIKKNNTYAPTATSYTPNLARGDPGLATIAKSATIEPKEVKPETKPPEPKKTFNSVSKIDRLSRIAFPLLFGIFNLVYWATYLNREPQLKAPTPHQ
T1 sequence (P47870 whole entry): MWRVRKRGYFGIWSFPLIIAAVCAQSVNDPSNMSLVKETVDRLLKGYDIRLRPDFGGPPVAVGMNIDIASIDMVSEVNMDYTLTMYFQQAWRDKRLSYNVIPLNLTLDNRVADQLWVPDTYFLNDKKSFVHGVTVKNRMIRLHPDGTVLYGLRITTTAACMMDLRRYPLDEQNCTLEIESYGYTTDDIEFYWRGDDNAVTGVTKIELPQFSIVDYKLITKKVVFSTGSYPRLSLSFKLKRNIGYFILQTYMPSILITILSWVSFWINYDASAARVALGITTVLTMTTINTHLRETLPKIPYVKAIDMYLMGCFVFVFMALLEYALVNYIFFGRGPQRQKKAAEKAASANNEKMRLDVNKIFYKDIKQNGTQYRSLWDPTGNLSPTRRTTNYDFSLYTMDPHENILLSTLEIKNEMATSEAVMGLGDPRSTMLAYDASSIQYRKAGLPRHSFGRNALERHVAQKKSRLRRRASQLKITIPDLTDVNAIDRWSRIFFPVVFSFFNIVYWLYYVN
T1 sequence (P18507 whole entry): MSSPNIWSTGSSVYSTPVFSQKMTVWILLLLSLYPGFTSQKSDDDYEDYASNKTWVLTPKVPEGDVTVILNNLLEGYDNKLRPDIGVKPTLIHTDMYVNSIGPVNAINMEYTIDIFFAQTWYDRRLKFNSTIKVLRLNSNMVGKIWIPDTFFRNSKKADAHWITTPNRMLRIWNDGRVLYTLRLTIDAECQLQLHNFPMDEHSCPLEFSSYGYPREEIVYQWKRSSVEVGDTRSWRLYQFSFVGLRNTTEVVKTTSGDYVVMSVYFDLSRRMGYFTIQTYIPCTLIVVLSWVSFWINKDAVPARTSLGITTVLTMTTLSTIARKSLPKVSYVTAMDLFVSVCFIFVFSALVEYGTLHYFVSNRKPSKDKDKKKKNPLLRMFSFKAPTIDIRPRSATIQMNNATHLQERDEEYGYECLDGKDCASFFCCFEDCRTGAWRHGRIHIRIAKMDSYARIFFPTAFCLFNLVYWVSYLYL
Test: Antagonist activity at human recombinant GABA A receptor alpha1beta2gamma2S expressed in HEK293 cells assessed as inhibition of GABA-induced current by patch clamp electrophysiology
Format: functional, cell-based

IC50 [nM]	SMILES
11	N=c1ccc(-c2ccc(OCc3ccccc3)cc2)nn1CCCC(=O)O
7	COc1cccc(COc2ccc(-c3ccc(=N)n(CCCC(=O)O)n3)cc2)c1
3	N=c1ccc(-c2ccc(OCc3cccc([N+](=O)[O-])c3)cc2)nn1CCCC(=O)O
40	C#CCOc1ccc(-c2ccc(=N)n(CCCC(=O)O)n2)cc1

SMILES	IC50 [nM]
COc1ccc(-c2ccc(=N)n(CCCC(=O)O)n2)cc1 [GABAZINE]	349
